# In a melting point compilation (Tetko et al.; mined from patent text by program, amines drawn as free bases though some values may be those of a salt):
row,SMILES,melting point
1,O=c1ccn(-c2cc(Cl)ccc2Cl)[nH]1,201 to 202 °C
2,Oc1ccc(-c2ccc3c(-c4ccccc4)c(O)ccc3c2)cc1,142 to 146 °C
3,CC(I)CC(F)(F)C(F)(F)C(F)(F)C(F)(F)C(F)(F)C(F)(F)CC(C)I (stereo not drawn),53 °C
4,Cc1ccc(S(=O)(=O)NC(=O)C2C(=O)CC(C(C)C)CC2=O)cc1 (stereo not drawn),106 to 108 °C
5,Cc1sc2c(c1C)C(c1ccc(Cl)cc1)=NCc1nnc(C)n1-2,> 250 °C
6,O=C(Nc1ccccc1-c1nnc(CSCCOc2ccccc2)o1)N1CCCC1,184 to 185 °C
7,CN(C(=O)C(Cl)(Cl)Cl)c1nc(Cl)c([N+](=O)[O-])s1,146 to 149 °C
8,CCOC(=O)c1ccc(NC(=O)C(COc2cccnc2)NS(=O)(=O)c2ccc(Cl)cc2)cc1 (racemic),119 to 124 °C
9,CCOC(=O)c1ccc(-c2ccc(-c3ccc(C(F)(F)F)cc3)s2)cc1,203 to 204 °C
10,COc1cc(C(=O)NC(C)(C)C)ccc1S(=O)(=O)N1C(=O)C(N)(c2ccccc2Cl)c2cc(Cl)ccc21 (stereo not drawn),263 to 265 °C
11,Cn1cc(-c2ccc(C(=O)N3Cc4cccn4Cc4ccccc43)cn2)cn1,173 to 175 °C
12,CC(=O)OC1CSC(Oc2cncc(-c3ccc(C)c(F)c3)c2)C(OC(C)=O)C1OC(C)=O (stereo not drawn),159 °C
13,NC(=S)N(N)Cc1cccc(Cl)c1,153 to 158 °C
14,CONC(=O)Nc1ccc(-c2sc3c(c2CN(C)Cc2ccccc2)c(=O)n(-c2ccccc2)c(=O)n3Cc2c(F)cccc2F)cc1,204 to 205 °C
15,Cc1c2c(nc3ccccc13)CCN(C(=O)Oc1ccccc1)CC2,150 °C
16,CCCCCN(CCC12CC3CC(CC(C3)C1)C2)C(=O)NCC(Cc1ccncc1)Cc1ccncc1,124 to 136 °C
17,BrCCCCCCCn1c(-c2ccccc2)nc(-c2ccccc2)c1-c1ccccc1,69 to 71 °C
18,CS(=O)(=O)C(=C1CN(C(c2ccccc2)c2ccccc2)C1)c1cccc(F)c1,210 °C
19,CCc1ncc(CCCOc2c(C)cc(-c3noc(C(F)(F)F)n3)cc2C)s1,57 to 59 °C
20,Oc1ccc(Nc2nnc(Cc3ccncc3)c3ccccc23)cc1,239 to 241 °C
21,COCCOc1ccc(CCCOC(=O)NS(=O)(=O)NC2CCC(C)CC2)c(Oc2ncc(C(F)(F)F)cc2Cl)c1 (stereo not drawn),122 °C
22,O=C(Nc1ccc2cc(CN3CCCC3)ccc2c1)N1CCC(c2ccc(F)cc2)CC1,209 to 211 °C
23,N#Cc1cn(-c2c(Cl)cccc2Cl)c(=O)[nH]c1=O,273 to 274 °C
24,CC(=O)c1cn(S(=O)(=O)c2ccccc2)c2nccc(OCc3ccccc3)c12,164 to 166 °C
25,CCOC(=O)C1=C[C@@H](OC(CC)CC)[C@H](NC(C)=O)[C@@H](N=[N+]=[N-])C1,115 to 117 °C
26,CCNC(=S)n1nc(Oc2ncc(C(F)(F)F)cc2Cl)cc1C,74 to 75 °C

# Second part, the compound after the results:
row,melting point,SMILES
1,139 to 140 °C,Nc1ccc(S(=O)C2=CCCCC2)cc1[N+](=O)[O-] (stereo not drawn)
2,81 to 82 °C,CC1(C)CCCSc2cc(Br)ccc21
3,194 to 195 °C,Cc1sc(N)nc1-c1cccc2ccccc12
4,142 to 143 °C,COCc1c(O)ccc2c1CCCC2=O
5,160 to 162 °C,CN(C)c1ccccc1CSC1=NC(=O)NC1(C)C
6,147 to 148 °C,Cc1ccccc1N1CC(=O)N(C)C(=O)N1
7,123 to 124 °C,Cc1c(C=O)c2c(c(C)c1NC=O)C(c1ccc(C(C)C)cc1)CO2 (stereo not drawn)
8,124 to 128 °C,COC(=O)CCC(C)C1CCC2C3=CC=C4C(C)(C)C(O)CCC4(C)C3CCC21C (stereo not drawn)
9,88 to 90 °C,CC(C)c1cc(-c2ccc(F)cc2)c(CO)c(C(C)C)n1
10,195 to 197 °C,CCCCc1oc2ccccc2c1C(=O)Nc1ccc2c(Br)c(O)ccc2c1
11,109 to 112 °C,CN1C(=O)CC[C@]2(C)c3ccc(Sc4ccccc4)cc3CC[C@@H]12
12,159 to 161 °C,COc1ccc(N2N=C3c4cc(Cl)ccc4SCCC3CC2=O)cc1 (stereo not drawn)
